Data as given in patent publication US7897587B2, “Topical dermatological formulations and use thereof” (Nycomed US Inc., priority 2004, dated 2011).

Assay: Solubility of fluticasone propionate in propylene glycol, propylene carbonate and mixtures thereof
Type: physicochemical
Details: 25° C.
Protocol: In the drawing FIGURE this solubility data obtained at 25° C. is plotted as the dark line and the idealized (theoretical) solubility is plotted as the light line. In “ideal” solutions, the effect of each component is additive in a linear fashion. If solvent A has a property with a value of 50 and solvent B a value of 100 for the same property, an equal blend of A and B would be expected to give a value of 75 for that property. […] The lightly colored line represents “ideal” linear behavior. Since propylene glycol can solubilize about 10 times more drug than propylene carbonate, the “ideal” line slopes down strongly as we move from pure propylene glycol to pure propylene carbonate. […] Two important observations can be made.

CCC(=O)O[C@]1(C(=O)SCF)[C@H](C)C[C@H]2[C@@H]3C[C@H](F)C4=CC(=O)C=C[C@]4(C)[C@@]3(F)[C@@H](O)C[C@@]21C [Fluticasone propionate, 6α,9α-difluoro-17α(1-oxopropoxy)-11β-hydroxy-16α-methyl-3-oxo-androsta-1,4-diene-17β-carbothioic acid S-fluoromethyl ester] showed a Fluticasone propionate solubility (% propylene glycol/% propylene carbonate 0/100) of 1.17 % w/w, a Fluticasone propionate solubility (% propylene glycol/% propylene carbonate 12.5/87.5) of 1.72 % w/w and a Fluticasone propionate solubility (% propylene glycol/% propylene carbonate 25/75) of 1.56 % w/w. The Fluticasone propionate solubility (% propylene glycol/% propylene carbonate 50/50) was 1.09 % w/w, the Fluticasone propionate solubility (% propylene glycol/% propylene carbonate 75/25) was 0.48 % w/w and the Fluticasone propionate solubility (% propylene glycol/% propylene carbonate 100/0) was 0.08 % w/w. For the same compound, the “Measured solubility compared with ideal (linear, theoretical) solubility” value (all propylene glycol/propylene carbonate mixtures) was “the measured solubility exceeds the ideal solubility”, the “Measured solubility in blends compared with solubility in single solvent” value (blends containing about 99 to 45% propylene carbonate) was “the measured solubility exceeds the solubility in propylene glycol” and the “Drug solubilized by propylene glycol relative to propylene carbonate” value (pure solvents) was “about 10 times”.
